Measurements as given in PubChem BioAssay (NCI).
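48-hour exposure; five concentrations; linearly interpolated endpoints. GI50: concentration for 50% inhibition of growth. Definition used: TGI = concentration required for complete inhibition of growth.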

Columns and labels:
Test in all cases: DTP human tumour cell line panel, 48 h
MDA-MB-468 breast = tested on: MDA-MB-468 breast
IGROV1 ovarian = tested on: IGROV1 ovarian
KM12 colon = tested on: KM12 colon
UO-31 renal = tested on: UO-31 renal
CAKI-1 renal = tested on: CAKI-1 renal
SF-268 CNS = tested on: SF-268 CNS
HL-60(TB) leukemia = tested on: HL-60(TB) leukemia
HS 578T breast = tested on: HS 578T breast
T-47D breast = tested on: T-47D breast
SK-MEL-2 melanoma = tested on: SK-MEL-2 melanoma
SNB-75 CNS = tested on: SNB-75 CNS
SF-295 CNS = tested on: SF-295 CNS
M14 melanoma = tested on: M14 melanoma
HT29 colon = tested on: HT29 colon
OVCAR-8 ovarian = tested on: OVCAR-8 ovarian
HOP-62 NSCLC = tested on: HOP-62 NSCLC
PC-3 prostate = tested on: PC-3 prostate
MDA-MB-231 breast = tested on: MDA-MB-231 breast
A549 NSCLC = tested on: A549 NSCLC
SK-OV-3 ovarian = tested on: SK-OV-3 ovarian
RPMI-8226 leukemia = tested on: RPMI-8226 leukemia
SN12C renal = tested on: SN12C renal
SK-MEL-28 melanoma = tested on: SK-MEL-28 melanoma
COLO 205 colon = tested on: COLO 205 colon
786-0 renal = tested on: 786-0 renal
NCI-H460 lung = tested on: NCI-H460 lung
MCF7 breast = tested on: MCF7 breast
SF-539 CNS = tested on: SF-539 CNS
K-562 leukemia = tested on: K-562 leukemia
SR leukemia = tested on: SR leukemia
NCI/ADR-RES ovarian = tested on: NCI/ADR-RES ovarian
RXF 393 renal = tested on: RXF 393 renal
ACHN renal = tested on: ACHN renal
MOLT-4 leukemia = tested on: MOLT-4 leukemia
UACC-62 melanoma = tested on: UACC-62 melanoma
EKVX NSCLC = tested on: EKVX NSCLC
U251 CNS = tested on: U251 CNS
CCRF-CEM leukemia = tested on: CCRF-CEM leukemia
HOP-92 NSCLC = tested on: HOP-92 NSCLC
OVCAR-3 ovarian = tested on: OVCAR-3 ovarian
SK-MEL-5 melanoma = tested on: SK-MEL-5 melanoma
HCT-15 colon = tested on: HCT-15 colon
MALME-3M melanoma = tested on: MALME-3M melanoma
HCT-116 colon = tested on: HCT-116 colon
HCC-2998 colon = tested on: HCC-2998 colon
BT-549 breast = tested on: BT-549 breast
TK-10 renal = tested on: TK-10 renal
SNB-19 CNS = tested on: SNB-19 CNS
NCI-H522 lung = tested on: NCI-H522 lung
UACC-257 melanoma = tested on: UACC-257 melanoma
OVCAR-4 ovarian = tested on: OVCAR-4 ovarian
MDA-MB-435 = tested on: MDA-MB-435
NCI-H23 lung = tested on: NCI-H23 lung
DU-145 prostate = tested on: DU-145 prostate
NCI-H226 lung = tested on: NCI-H226 lung
OVCAR-5 ovarian = tested on: OVCAR-5 ovarian
A498 renal = tested on: A498 renal

For `C=COCCCOc1ccccc1`, the GI50 (MDA-MB-468 breast) was > 100 µM and the TGI (MDA-MB-468 breast) was > 100 µM.

Molecule `O=C(CNc1ccc(Cl)cc1)Nc1ccc(-c2nc3ccccc3s2)cc1` has a GI50 (MDA-MB-468 breast) of 0.0375 µM and a TGI (MDA-MB-468 breast) of 0.386 µM.

For `Cn1nc(N)c2cc([C@@H]3Nc4ccc5[nH]ncc5c4[C@H]4C5CCC(C5)[C@@H]34)ccc21` (some centres not stated), the GI50 (MDA-MB-468 breast) was 0.235 µM and the TGI (MDA-MB-468 breast) was 3.34 µM.

With `CC(C)CCN1c2nc(Nc3cc(F)c(O)c(F)c3)ncc2N(C)C(=O)C1C` (configuration not stated) the GI50 (MDA-MB-468 breast) was 5.02 µM and the TGI (MDA-MB-468 breast) was 23.9 µM.

For `COc1ccc(C(C)=O)cc1N1C(=O)C2C(C1=O)C1(c3ccccc3)C(=O)C2(c2ccccc2)C(c2ccc(C)cc2)=C1c1ccc(C)cc1` (configuration not stated), the GI50 (MDA-MB-468 breast) was > 100 µM and the TGI (MDA-MB-468 breast) was > 100 µM.

`CS(=O)c1nccc(-c2c(-c3ccc(F)c(OCc4ccc(F)cc4)c3)nc3sccn23)n1` (configuration not stated) was tested, and the GI50 (MDA-MB-468 breast) was 1.95 µM and the TGI (MDA-MB-468 breast) was 4.33 µM.

For `O=C(Nc1ccc(Cl)cc1F)c1ccccc1O`, the GI50 (MDA-MB-468 breast) was 2.31 µM and the TGI (MDA-MB-468 breast) was 6.42 µM.

In the case of `CCCCCc1ccc(S(=O)(=O)Nc2cc(-c3csc(N(C)C(C)=O)n3)ccc2N2CCN(C)CC2)cc1`, the GI50 (IGROV1 ovarian) is reported as 9.77 µM, the TGI (IGROV1 ovarian) is reported as > 35.5 µM and the GI50 (KM12 colon) is reported as 3.61 µM. The TGI (KM12 colon) was > 35.5 µM, the GI50 (UO-31 renal) was 5.42 µM and the TGI (UO-31 renal) was > 35.5 µM. For the same molecule, the GI50 (CAKI-1 renal) was 1.86 µM, the TGI (CAKI-1 renal) was 13.5 µM and the GI50 (SF-268 CNS) was 7.01 µM. For the same molecule, the TGI (SF-268 CNS) was > 35.5 µM, the GI50 (HL-60(TB) leukemia) was 0.807 µM and the TGI (HL-60(TB) leukemia) was 2.4 µM. The GI50 (HS 578T breast) was 5.25 µM, the TGI (HS 578T breast) was 35.1 µM and the GI50 (T-47D breast) was 2.95 µM. For the same molecule, the TGI (T-47D breast) was > 35.5 µM, the GI50 (SK-MEL-2 melanoma) was 8.64 µM and the TGI (SK-MEL-2 melanoma) was 30.2 µM. It also gave a GI50 (SNB-75 CNS) of 3.6 µM, a TGI (SNB-75 CNS) of 15 µM and a GI50 (SF-295 CNS) of 0.754 µM. The TGI (SF-295 CNS) was 2.12 µM, the GI50 (M14 melanoma) was 3.93 µM and the TGI (M14 melanoma) was > 35.5 µM. For the same molecule, the GI50 (HT29 colon) was 1.13 µM, the TGI (HT29 colon) was 3.66 µM and the GI50 (OVCAR-8 ovarian) was 10.2 µM. The TGI (OVCAR-8 ovarian) was > 35.5 µM, the GI50 (HOP-62 NSCLC) was 7.85 µM and the TGI (HOP-62 NSCLC) was > 35.5 µM. For the same molecule, the GI50 (PC-3 prostate) was 2.2 µM, the TGI (PC-3 prostate) was > 35.5 µM and the GI50 (MDA-MB-231 breast) was 1.81 µM. For the same molecule, the TGI (MDA-MB-231 breast) was 8.34 µM, the GI50 (A549 NSCLC) was 3.34 µM and the TGI (A549 NSCLC) was > 35.5 µM. It also gave a GI50 (SK-OV-3 ovarian) of 7.29 µM, a TGI (SK-OV-3 ovarian) of 17.5 µM and a GI50 (RPMI-8226 leukemia) of 1.32 µM. For the same molecule, the TGI (RPMI-8226 leukemia) was > 35.5 µM, the GI50 (SN12C renal) was 3.73 µM and the TGI (SN12C renal) was 28.1 µM. It also gave a GI50 (SK-MEL-28 melanoma) of 6.76 µM, a TGI (SK-MEL-28 melanoma) of 19.7 µM and a GI50 (COLO 205 colon) of 0.626 µM. For the same molecule, the TGI (COLO 205 colon) was 1.27 µM, the GI50 (786-0 renal) was 2.29 µM and the TGI (786-0 renal) was 30.8 µM. It also gave a TGI (NCI-H460 lung) of 11.1 µM, a GI50 (MCF7 breast) of 0.983 µM and a TGI (MCF7 breast) of 4.09 µM. For the same molecule, the GI50 (SF-539 CNS) was 1.21 µM, the TGI (SF-539 CNS) was 4.59 µM and the GI50 (K-562 leukemia) was 1.01 µM. The TGI (K-562 leukemia) was > 35.5 µM, the GI50 (SR leukemia) was 1.02 µM and the TGI (SR leukemia) was 3.6 µM. The GI50 (NCI/ADR-RES ovarian) was 5.75 µM, the TGI (NCI/ADR-RES ovarian) was > 35.5 µM and the GI50 (RXF 393 renal) was 2.11 µM. For the same molecule, the TGI (RXF 393 renal) was 17.9 µM, the GI50 (ACHN renal) was 4.66 µM and the TGI (ACHN renal) was > 35.5 µM. For the same molecule, the GI50 (MOLT-4 leukemia) was 1.4 µM, the TGI (MOLT-4 leukemia) was > 35.5 µM and the GI50 (UACC-62 melanoma) was 6.2 µM. For the same molecule, the TGI (UACC-62 melanoma) was 12.6 µM, the GI50 (EKVX NSCLC) was 15.2 µM and the TGI (EKVX NSCLC) was > 35.5 µM. The GI50 (U251 CNS) was 7.43 µM, the TGI (U251 CNS) was > 35.5 µM and the GI50 (CCRF-CEM leukemia) was 1.02 µM. For the same molecule, the TGI (CCRF-CEM leukemia) was 3.71 µM, the GI50 (HOP-92 NSCLC) was 1.71 µM and the TGI (HOP-92 NSCLC) was 15.4 µM. It also gave a GI50 (OVCAR-3 ovarian) of 1.12 µM, a TGI (OVCAR-3 ovarian) of 12.8 µM and a GI50 (SK-MEL-5 melanoma) of 4.47 µM. For the same molecule, the TGI (SK-MEL-5 melanoma) was 16.9 µM, the GI50 (HCT-15 colon) was 1.04 µM and the TGI (HCT-15 colon) was > 35.5 µM. The GI50 (MALME-3M melanoma) was 5.26 µM, the TGI (MALME-3M melanoma) was 19.7 µM and the GI50 (HCT-116 colon) was 1.07 µM. The TGI (HCT-116 colon) was 3.67 µM, the GI50 (HCC-2998 colon) was 1.25 µM and the TGI (HCC-2998 colon) was 8.55 µM. For the same molecule, the GI50 (BT-549 breast) was 9.72 µM, the TGI (BT-549 breast) was > 35.5 µM and the GI50 (TK-10 renal) was 7.43 µM. The TGI (TK-10 renal) was 19.9 µM, the GI50 (SNB-19 CNS) was 10.9 µM and the TGI (SNB-19 CNS) was > 35.5 µM. The GI50 (NCI-H522 lung) was 5.51 µM, the TGI (NCI-H522 lung) was 14.7 µM and the GI50 (UACC-257 melanoma) was 6.59 µM. It also gave a TGI (UACC-257 melanoma) of 26.9 µM, a GI50 (OVCAR-4 ovarian) of 2.22 µM and a TGI (OVCAR-4 ovarian) of 29.8 µM. For the same molecule, the GI50 (MDA-MB-468 breast) was 1.62 µM, the TGI (MDA-MB-468 breast) was 7.5 µM and the GI50 (MDA-MB-435) was 2.02 µM. The TGI (MDA-MB-435) was > 35.5 µM, the GI50 (NCI-H23 lung) was 7.49 µM and the TGI (NCI-H23 lung) was 31.7 µM. The GI50 (DU-145 prostate) was 3.93 µM, the TGI (DU-145 prostate) was > 35.5 µM and the GI50 (NCI-H226 lung) was 8.43 µM. The TGI (NCI-H226 lung) was 33.2 µM, the GI50 (OVCAR-5 ovarian) was 16.5 µM and the TGI (OVCAR-5 ovarian) was > 35.5 µM. For the same molecule, the GI50 (A498 renal) was 9.21 µM and the TGI (A498 renal) was > 35.5 µM.
